For one data set, the system named is SMAD3 mRNA. Briefly: si Smad3 transfection of myofibroblasts from carbon tetrachloride-induced fibrotic liver, SMAD3 mRNA. It counts as cell-based, mouse. The note with it: myofibroblasts from CCl4 liver fibrosis model; versus si Ctrl; FIG. 26c. The method, then:
The mRNA expression levels of P4HA3 etc. in the examples of the present specification were quantified as follows. The concentration of purified RNA was determined using a microspectrophotometer DS-11 (DeNovix), and reverse transcription to cDNA was performed using a High Capacity cDNA Reverse Transcription Kit (Applied Biosystems). Quantification of mRNA was performed according to the protocol of Luna Universal qPCR Master Mix (New England BioLabs), with DNA polymerase activation at 95° C. for 60 seconds, followed by 45 cycles of cDNA denaturation at 95° C. for 15 seconds and extension at 60° C. for 30 seconds. Analysis was performed by the AACt method using GAPDH as an internal standard. Mouse Cyp7al probe was purchased from Applied Biosystems. Primers and probes for mouse α-smooth muscle actin (α-SMA), CD68, 1α1 collagen (Col1α1), 1α2 collagen (Col1α2), 1α3 collagen (Col1α3), 6α1 collagen (Col6α1), 8α1 collagen (Co81α1), GAPDH (glyceraldehyde-3-phosphate dehydrogenase), heat shock protein 47 (Hsp47), prolyl 4-hydroxylase alphal subunit (P4HA1), prolyl 4-hydroxylase alpha2 subunit (P4HA2), and prolyl 4-hydroxylase alpha3 subunit (P4HA3) were purchased from Sigma-Aldrich.
Hepatic stellate cells, which are involved in liver fibrosis, are known to be activated by TGFβ (Fabregat, I. et al., FEBS J., 283:2219-2232 (2016)). […]

Data set [1] deals with mRNA expression of fibrosis-related factors (collagens, elastin) in myofibroblasts. The experiment in a line: siRNA treatment of myofibroblasts from carbon tetrachloride-induced fibrotic liver, fibrosis-related factor mRNA by real-time RT-PCR. The note with it: myofibroblasts from CCl4 liver fibrosis model; si Smad3 versus si Ctrl; P4HA3, Col1α1, Col1α2, Col3α1; FIG. 26c. It counts as cell-based, mouse. (Real-time PCR tracks product formation cycle by cycle.)

On to “si Smad3: siRNA for mouse SMAD3, SEQ ID NOs: 14 and 15; ThermoFisher Scientific catalog 4390771, Assay ID s69495 (chain 1 GGAATTTGCTGCCCTCCTATT; chain 2 TAGGAGGGCAGCAAATTCCCT; listed as DNA, chemistry not given here)”, for which, in the data set on SMAD3 mRNA, the “mRNA expression of SMAD3” value is “inhibits”. Also, in data set [1], the “mRNA expression of fibrosis-related factors including P4HA3” value is reported as “suppressed”.
